Experimental data as given in PMC11582173, “Synthesis, cytotoxicity, anti-inflammatory, anti-metastatic and anti-oxidant activities of novel chalcones incorporating 2-phenoxy-N-arylacetamide and thiophene moieties: induction of apoptosis in MCF7 and HEP2 cells” (Naunyn-Schmiedeberg's Archives of Pharmacology, 2024).
Where “and” joins values, the source holds several entries; their conditions need not be identical. Equal entries are not always repeated.

Key:
MMP2 = assay: ELISA, MMP2 concentration; type: cell-based, human
Experimental: The concentrations of matrix metalloproteinase-2 (MMP2), matrix metalloproteinase-9 (MMP9), Bcl2, BAX, P53, Malondialdehyde (MDA), Glutathione (GSH), caspase 8, caspase 9 and IL-6 were measured quantitatively in 5c treated MCF7 and HEP2 cells using ELISA (Enzyme-Linked Immunosorbent Assay) (Table 4). Gelatinases are a collective word for MMP-2 and MMP-9, where MMP-2 is gelatinase-A and MMP-9 is gelatinase-B. Solid tumor invasion, metastasis, and angiogenesis have long been linked to gelatinases (Das et al. [2021]). […] Bcl2 is a crucial protein that targets apoptosis inhibition. It is regarded as a predictive biomarker or therapeutic target in the diagnosis of cancer due to its broad expression in a variety of cancers (Porter et al. [2009]). […] The pro-apoptotic protein BAX permeabilizes the mitochondrial outer membrane by changing from a cytosolic monomer to a hazardous oligomer triggering the apoptosis process (Fulda and Debatin [2006]). […] P53 transcription factor performs an essential tumor suppressor role by coordinating a wide range of physiological responses, including DNA repair, cell cycle arrest, cellular senescence, cell death, cell differentiation, and metabolism (Liebl and Hofmann [2021]). It was activated in MCF7 and HEP2-treated cells with values (4.28 and 3.109 ng/mL), respectively, compared to their controls (3.44 and 2.06 ng/mL). […]

MCF7 cells = assay: Flow cytometric analysis of cell cycle, MCF7; type: cell-based, human; conditions: MCF7, IC50 of 5c, 48 h
Experimental: In DMEM-supplemented media, cells were plated in 12-well plates at a cell density of 6–8×10^5 per well. After twenty-four hours, cells were cultured for an additional 48 hours with the IC50 of the target compound. The untreated cells were used as a negative control. After 48 h of incubation, the treated cells were centrifuged at 1,200 rpm and 4 °C for 10 min. After discarding the supernatant, the wells were then given a single phosphate-buffered saline (PBS) wash and then centrifuged for 10 min at 1,200 rpm. Trypsin/EDTA was used to collect the cells, and after one PBS wash, they were resuspended in 0.5 mL of 0.05% Triton X-100 for 10 min at room temperature. Each cell suspension was stained by being given 1 mL of 50 µg/mL propidium iodide (PI) to be left at room temperature in the darkness for 20 minutes. The analysis of the cell cycle was done by a flow cytometer (Becton Dickenson (BD) FACSCalibur, USA) (Michalkova et al. [2022]).

COc1ccc(NC(=O)COc2ccc(C=CC(=O)c3cccs3)cc2)cc1 [Compound 5c, N-(4-Methoxyphenyl)-2-(4-(3-oxo-3-(thiophen-2-yl)prop-1-en-1-yl)phenoxy)acetamide]
MMP2 concentration (MMP2; 5c treated HEP2 cells, untreated 461.58±45.11): 142.5 pg/mL and 142.5 ± 15.03 pg/mL
MMP2 concentration (MMP2; 5c treated MCF7 cells, untreated 466.90±22.55): 185.125 pg/mL and 185.125 ± 30.07 pg/mL
Percentage of DNA in G2-M phase (MCF7 cells; untreated control 8.95±0.38): 2.8% and 2.855±0.07778%
Percentage of DNA in S phase (MCF7 cells; untreated control 45.405±1.97283): 42.84% and 42.845±0.4596%
Percentage of DNA in G0-G1 phase (MCF7 cells; untreated control 45.585±1.548): 54.3% and 54.3±0.5374%
